According to ChEMBL document CHEMBL1649095, “A κ Opioid Pharmacophore Becomes a Spinally Selective κ-δ Agonist When Modified with a Basic Extender Arm” (2011):
Active and inactive are the calls of the source. No cut-off for these calls is given here.

What was measured:
Mus musculus [1] = assay: Antinociceptive activity in icv dosed HSD:ICR(CD1) mouse by tail flick test; type: functional
Mus musculus [2] = assay: Antinociceptive activity in intrathecally dosed HSD:ICR(CD1) mouse by tail flick test; type: functional
Mus musculus [3] = assay: Potency index, ratio of antinociceptive ED50 in icv dosed HSD:ICR(CD1) mouse to antinociceptive ED50 in intrathecally dosed HSD:ICR(CD1) mouse; type: functional
Mus musculus [4] = assay: Ratio of antinociceptive ED80 in intrathecally dosed HSD:ICR(CD1) mouse coadministered with 2.5 nmol kappa opioid receptor antagonist norBNI to ED80 in intrathecally dosed HSD:ICR(CD1) mouse; type: functional
Mus musculus [5] = assay: Ratio of antinociceptive ED80 in intrathecally dosed HSD:ICR(CD1) mouse coadministered with 5 nmol delta opioid receptor antagonist NTI to ED80 in intrathecally dosed HSD:ICR(CD1) mouse; type: functional
[6] = biological target: Opioid receptors; delta & kappa (Homo sapiens) (UniProt P41145+P41143); assay: Agonist activity at kappa/delta opioid receptor expressed in HEK293 cells coexpressing chimeric Giiq protein assessed as stimulation of intracellular calcium; type: functional, cell-based
HEK293 [7] = assay: Selectivity for kappa/delta opioid receptor expressed in HEK293 cells over mu opioid receptor expressed in HEK293 cells by intracellular calcium release assay; type: cell-based
HEK293 [8] = assay: Selectivity for kappa/delta opioid receptor expressed in HEK293 cells over kappa opioid receptor expressed in HEK293 cells by intracellular calcium release assay; type: cell-based
HEK293 [9] = assay: Selectivity for kappa/delta opioid receptor expressed in HEK293 cells over kappa/mu opioid receptor expressed in HEK293 cells by intracellular calcium release assay; type: cell-based
HEK293 [10] = assay: Selectivity for kappa/delta opioid receptor expressed in HEK293 cells over mu/delta opioid receptor expressed in HEK293 cells by intracellular calcium release assay; type: cell-based

Opioid receptors; delta & kappa (Homo sapiens), sequence (P41143 whole entry, looked up): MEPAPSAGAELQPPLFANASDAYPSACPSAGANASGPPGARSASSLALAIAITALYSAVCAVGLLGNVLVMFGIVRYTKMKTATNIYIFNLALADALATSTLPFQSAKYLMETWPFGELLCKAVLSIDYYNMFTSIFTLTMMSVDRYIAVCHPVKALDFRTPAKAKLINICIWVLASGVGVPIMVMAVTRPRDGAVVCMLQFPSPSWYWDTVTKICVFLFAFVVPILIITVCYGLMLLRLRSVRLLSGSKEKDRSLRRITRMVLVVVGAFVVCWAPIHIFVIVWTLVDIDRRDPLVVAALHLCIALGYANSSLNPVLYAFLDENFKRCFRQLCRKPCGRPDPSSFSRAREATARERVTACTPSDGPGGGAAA
Opioid receptors; delta & kappa (Homo sapiens), sequence (P41145 whole entry, looked up): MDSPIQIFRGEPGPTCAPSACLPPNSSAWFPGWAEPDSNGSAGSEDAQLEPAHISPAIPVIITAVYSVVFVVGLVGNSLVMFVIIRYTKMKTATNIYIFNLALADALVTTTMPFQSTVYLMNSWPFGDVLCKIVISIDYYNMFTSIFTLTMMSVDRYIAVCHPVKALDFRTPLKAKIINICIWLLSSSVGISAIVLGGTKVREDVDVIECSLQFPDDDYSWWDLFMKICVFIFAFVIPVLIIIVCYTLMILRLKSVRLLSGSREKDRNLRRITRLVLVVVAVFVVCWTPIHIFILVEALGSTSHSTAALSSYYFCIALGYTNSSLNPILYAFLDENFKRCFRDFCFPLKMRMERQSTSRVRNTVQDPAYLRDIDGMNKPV

Structure (SMILES): CNCCCCNC(=O)COCC(=O)NCC(=O)Nc1cccc([C@@H](CN2CCCC2)N(C)C(=O)Cc2ccc(Cl)c(Cl)c2)c1
- ED50 (Mus musculus [1]): 0.48 nmol
- ED50 (Mus musculus [2]): 0.17 nmol
- Ratio ED50 (Mus musculus [3]): 2.81

Structure (SMILES): CN(C(=O)Cc1ccc(Cl)c(Cl)c1)[C@H](CN1CCCC1)c1cccc(NC(=O)CNC(=O)CNC(=O)COCC(=O)NCCCNC=O)c1
- ED50 (Mus musculus [1]): 0.47 nmol
- ED50 (Mus musculus [2]): 0.02 nmol
- Ratio ED50 (Mus musculus [3]): 23.44

Structure (SMILES): CNCCCNC(=O)COCC(=O)NCC(=O)NCC(=O)Nc1cccc([C@@H](CN2CCCC2)N(C)C(=O)Cc2ccc(Cl)c(Cl)c2)c1
- ED50 (Mus musculus [1]): 0.58 nmol
- ED50 (Mus musculus [2]): 0.0045 nmol
- Ratio ED50 (Mus musculus [3]): 130.91
- Ratio (Mus musculus [4]): 28.5
- Ratio (Mus musculus [5]): 9.97
- Activity [6]: Active
- Selectivity ratio (HEK293 [7]): 66
- Selectivity ratio (HEK293 [8]): 66
- Selectivity ratio (HEK293 [9]): 66
- Selectivity ratio (HEK293 [10]): 66

Structure (SMILES): CNCCCCNC(=O)COCC(=O)Nc1cccc([C@@H](CN2CCCC2)N(C)C(=O)Cc2ccc(Cl)c(Cl)c2)c1
- ED50 (Mus musculus [1]): 0.52 nmol
- ED50 (Mus musculus [2]): 0.15 nmol
- Ratio ED50 (Mus musculus [3]): 3.45

Structure (SMILES): CNCCNC(=O)COCC(=O)NCC(=O)NCC(=O)NCC(=O)Nc1cccc([C@@H](CN2CCCC2)N(C)C(=O)Cc2ccc(Cl)c(Cl)c2)c1
- ED50 (Mus musculus [1]): 0.4 nmol
- ED50 (Mus musculus [2]): 0.035 nmol
- Ratio ED50 (Mus musculus [3]): 11.43
